Source: patent US7485644B2, “N-{'4-substituted piperazine-1-sulfonylmethylalkyl}-n-hydroxyfomamide compounds as metalloproteinase inhibitors” (AstraZeneca AB, priority 2003, dated 2009)

Legend:
Collagenase 3 (MMP13) = target: T1, Collagenase 3 (MMP13) (Homo sapiens, UniProt P45452); assay: Collagenase 3 (MMP13) enzyme inhibition, fluorogenic peptide substrate; assay type: biochemical; details: recombinant human proMMP13 activated with APMA; 4-5 hours at 35° C., pH 7.5; fluorescence λex 328 nm, λem 393 nm; read-out: IC50 (nM), collagenase 3 (MMP13) inhibitory activity
T1 construct: made in house
Text: The activity and selectivity of the compounds according to the invention may be determined using an appropriate enzyme inhibition test as described in WO 00/12478, WO 00/75108 and WO 01/62742. Collagenase 3 (MMP13) inhibitory activity may be assessed, for example, using the procedure set out below:—
Recombinant human proMMP13 may be expressed and purified as described by Knauper et al. [V. Knauper et al., (1996) The Biochemical Journal 271:1544-1550 (1996)]. The purified enzyme can be used to monitor inhibitors of activity as follows: purified proMMP13 is activated using 1 mM amino phenyl mercuric […] (APMA), 20 hours at 21° C.; the activated MMP13 (11.25 ng per assay) is incubated for 4-5 hours at 35° C. in assay buffer (0.1M Tris-HCl, pH 7.5 containing 0.1M NaCl, 20 mM CaCl2, 0.02 mM ZnCl and 0.05% (w/v) Brij 35 using the synthetic substrate 7-methoxycoumarin-4-yl)acetyl.Pro.Leu.Gly.Leu.N-3-(2,4-dinitrophenyl)-L-2,3-diaminopropionyl.Ala.Arg.NH2 in the presence or absence of inhibitors. Activity is determined by measuring the fluorescence at λex 328 nm and λem 393 nm. By measuring the activity at a range of concentrations, a binding curve can be generated from which the IC50 can be determined, this figure being the inhibitor concentration at which the enzyme activity is reduced by 50%.

IC50 (Collagenase 3 (MMP13)) | melting point | SMILES
2.8 nM |  | CCC(CS(=O)(=O)N1CCN(c2ccc(OC(F)(F)C(F)F)cc2)CC1)N(O)C=O (racemic) [Example 7f]
 | 129 to 133 °C | O=CN(O)[C@@H](CCCc1ncccn1)CS(=O)(=O)N1CCN(c2ncc(OCC(F)(F)F)cn2)CC1 [Example 1, Hydroxy{(1S)-4-pyrimidin-2-yl-1-[({4-[5-(2,2,2-trifluoroethoxy)pyrimidin-2-yl]piperazin-1-yl}sulfonyl)methyl]butyl}formamide]
0.24 nM |  | O=CN(O)C(CCc1ncc(F)cn1)CS(=O)(=O)N1CCN(c2ccc(OCC(F)(F)F)cn2)CC1 (centres unmarked) [Example 2b]
13 nM |  | O=CN(O)C(CS(=O)(=O)N1CCN(c2ncc(OCC(F)(F)F)cn2)CC1)C1CCOCC1 (centres unmarked) [Example 2f]
 | 149 to 151 °C | O=CN(O)[C@@H](CCc1ncccn1)CS(=O)(=O)N1CCN(c2ccc(OCC(F)(F)F)cn2)CC1 [Example 3, Hydroxy{(1S)-3-pyrimidin-2-yl-1-[({4-[5-(2,2,2-trifluoroethoxy)pyridin-2-yl]piperazin-1-yl}sulfonyl)methyl]propyl}formamide]
 | 175 to 176 °C | O=CN(O)[C@H](CS(=O)(=O)N1CCN(c2ccc(OC(F)(F)C(F)F)cc2)CC1)C1CCOCC1 [Example 4, Hydroxy[(1S)-2-({4-[4-(1,1,2,2-tetrafluoroethoxy)phenyl]piperazin-1-yl}sulfonyl)-1-(tetrahydro-2H-pyran-4-yl)ethyl]formamide]
3.6 nM |  | O=CN(O)C(CS(=O)(=O)N1CCN(c2ccc(OC(F)(F)C(F)F)cc2)CC1)c1ccccc1 (centres unmarked) [Example 5, Hydroxy[1-phenyl-2-({4-[4-(1,1,2,2-tetrafluoroethoxy)phenyl]piperazin-1-yl}sulfonyl)ethyl]formamide]
0.12 nM |  | O=CN(O)C(CCCc1ncccn1)CS(=O)(=O)N1CCN(c2ccc(OC(F)(F)C(F)F)cc2)CC1 (centres unmarked) [Example 7a]
0.19 nM |  | O=CN(O)C(CCc1ncc(F)cn1)CS(=O)(=O)N1CCN(c2ccc(OC(F)(F)C(F)F)cc2)CC1 (centres unmarked) [Example 7c]
1.5 nM |  | O=CN(O)C(CCc1ncccn1)CS(=O)(=O)N1CCN(c2ccc(OCC(F)(F)F)cc2)CC1 (centres unmarked) [Example 8b]
4 nM |  | O=CN(O)C(CS(=O)(=O)N1CCN(c2ccc(OCC(F)(F)F)cc2)CC1)C1CCOCC1 (centres unmarked) [Example 8g]
